Experimental findings from ChEMBL document CHEMBL1141743, “Malyngamides M and N from the Hawaiian Red Alga Gracilaria coronopifolia” (J Nat Prod, 1998) are described below.

The experiment is described as follows: Cytotoxicity against mouse NB cells. The class given is functional, cell-based.
Turning to `CCCCCCC[C@@H](C/C=C/CCC(=O)N(C)C/C(=C/Cl)[C@]12O[C@H]1C[C@@H](OC(C)=O)[C@@H](C)C2=O)OC`, the 50% inhibitory concentration (IC50) came to 12 µM.

As to `CCCCCCC[C@@H](C/C=C/CCC(=O)N(C)C/C(=C/Cl)c1cccc(C)c1O)OC` [MALYNGAMIDE M], the IC50 is more than 20 µM.

On to `CCCCCCC[C@@H](C/C=C/CCC(=O)N(C)C/C(=C/Cl)[C@]12O[C@H]1CC=C(C)C2=O)OC` [MALYNGAMIDE N], for which half-maximal inhibition (IC50) was put at 12 µM.
